Laboratory results published in US20230320956A1, “DIARYLALKANE COMPOUNDS AND COMPOSITIONS FOR USE WITH SKIN AGING AND METHODS OF PRODUCTION THEREOF” (Unigen, Inc., priority 2022, published 2023).

Tested on: keratinocytes (Hacat cell line)
Assay: Global gene expression (RNA-seq) in treated keratinocytes
Assay type: cell-based, human
Conditions: for Fold change (gene expression): 40 μM vs untreated; for Fold Enrichment / Number of Genes Differentially Expressed: 40 μM
Method: To determine specific expression changes dimethoxytolyl propylresorcinol exerted on human keratinocyte aging genes, keratinocytes (Hacat cell line) were treated dimethoxytolyl propylresorcinol at 40 μM and gene expression was analyzed by RNA-seq. Differential gene expression was compared to untreated keratinocytes and cells treated with 40 μM Retinol A to find genes involved in aging. […] Retinol was chosen as a positive control because retinoids have been described as having effective anti-aging and anti-wrinkle effects (Zasada M, 2019). We directly compared the effects of Retinol on keratinocytes with the same concentration of dimethoxytolyl propylresorcinol.

[1] = Gene Cluster Activation of MAPK activity
[2] = Gene Cluster Calcium ion binding
[3] = Gene Cluster Cell-cell signaling
[4] = Gene Cluster Cellular response to lipopolysaccharide
[5] = Gene Cluster Cellular response to retinoic acid
[6] = Gene Cluster Epidermis development
[7] = Gene Cluster Epithelial cell differentiation
[8] = Gene Cluster Extracellular exosome
[9] = Gene Cluster Extracellular matrix organization
[10] = Gene Cluster Extracellular region
[11] = Gene Cluster Extracellular space
[12] = Gene Cluster Growth factor activity
[13] = Gene Cluster Hyaluronan biosynthetic process
[14] = Gene Cluster Inflammatory response
[15] = Gene Cluster Intermediate filament cytoskeleton organization
[16] = Gene Cluster Keratinocyte differentiation
[17] = Gene Cluster Negative regulation of ERK1 and ERK2 cascade
[18] = Gene Cluster Negative regulation of cell proliferation
[19] = Gene Cluster Negative regulation of endopeptidase activity
[20] = Gene Cluster Neutrophil chemotaxis
[21] = Gene Cluster O-glycan processing
[22] = Gene Cluster Osteoblast differentiation
[23] = Gene Cluster Positive regulation of angiogenesis
[24] = Gene Cluster Positive regulation of cell migration
[25] = Gene Cluster Positive regulation of cell proliferation
[26] = Gene Cluster Positive regulation of gene expression
[27] = Gene Cluster Positive regulation of smooth muscle cell proliferation
[28] = Gene Cluster Proteinaceous extracellular matrix
[29] = Gene Cluster Transforming growth factor beta receptor binding

For `COc1ccc(CCCc2ccc(O)cc2O)c(OC)c1C` [dimethoxytolyl propylresorcinol, 1-(3-methyl-2,4-dimethoxyphenyl)-3-(2′,4′-dihydroxyphenyl)-propane], the “Fold change (gene expression)” value (AHR - Aryl hydrocarbon receptor, Oxidative stress) was 1.73 fold, the “Fold change (gene expression)” value (ANGPTL4 - Angiopoietin-like 4, Negative regulation of growth/Angiogenesis) was 8.23 fold and the “Fold change (gene expression)” value (ANOS1 - Anosmin 1, ECM/Nerve adhesion) was 0.49 fold. For the same compound, the “Fold change (gene expression)” value (BMP4 - Bone morphogenetic protein 4, Growth) was 0.41 fold, the “Fold change (gene expression)” value (C3orf33 - Chromosome 3 open reading frame 33, Negative regulation of growth) was 3.03 fold and the “Fold change (gene expression)” value (CD1D - CD1d molecule, ECM) was 0.36 fold. For the same compound, the “Fold change (gene expression)” value (CDK5R1 - Cyclin-dependent kinase 5 activator 1, Growth/Skin barrier) was 1.54 fold, the “Fold change (gene expression)” value (CEACAM1 - CEA cell adhesion molecule 1, Cell adhesion) was 2.01 fold and the “Fold change (gene expression)” value (COL1A1 - Collagen type 1, ECM) was 1.89 fold. For the same compound, the “Fold change (gene expression)” value (COL5A1 - Collagen type V alpha 1 chain, ECM) was 0.24 fold, the “Fold change (gene expression)” value (CRISPLD2 - Cysteine-rich secretory protein LCCL domain-containing 2, ECM) was 2.56 fold and the “Fold change (gene expression)” value (CXCL3 - C-X-C motif chemokine ligand 3, Immune signaling) was 8.16 fold. For the same compound, the “Fold change (gene expression)” value (CYP1A1 - Cytochrome P450 family 1 subfamily A member 1, Drug metabolism) was 5.04 fold, the “Fold change (gene expression)” value (ECM1 - Extracellular matrix protein 1, ECM) was 2.49 fold and the “Fold change (gene expression)” value (EPHA4 - Ephrin type-A receptor 4, Cell adhesion, cell communication) was 0.42 fold. For the same compound, the “Fold change (gene expression)” value (EREG - Epiregulin, Growth) was 9.61 fold, the “Fold change (gene expression)” value (FABP5 - Fatty acid binding protein 5, Skin barrier) was 1.68 fold and the “Fold change (gene expression)” value (FGF1 - Fibroblast growth factor 1, Growth) was 0.43 fold. For the same compound, the “Fold change (gene expression)” value (FGF11 - Fibroblast growth factor 11, Growth) was 0.56 fold, the “Fold change (gene expression)” value (FLRT2 - Fibronectin leucine-rich transmembrane protein 2, ECM) was 0.30 fold and the “Fold Enrichment” value [1] was 2.39 fold. For the same compound, the “Number of Genes Differentially Expressed” value [1] was 14, the “Fold Enrichment” value (Gene Cluster Angiogenesis) was 2.79 fold and the “Number of Genes Differentially Expressed” value (Gene Cluster Angiogenesis) was 34. The “Fold Enrichment” value [2] was 1.49 fold, the “Number of Genes Differentially Expressed” value [2] was 58 and the “Fold Enrichment” value (Gene Cluster Cell development) was 4.12 fold. The “Number of Genes Differentially Expressed” value (Gene Cluster Cell development) was 9, the “Fold Enrichment” value (Gene Cluster Cell surface) was 1.85 fold and the “Number of Genes Differentially Expressed” value (Gene Cluster Cell surface) was 53. The “Fold Enrichment” value [3] was 2.59 fold, the “Number of Genes Differentially Expressed” value [3] was 36 and the “Fold Enrichment” value [4] was 3.08 fold. The “Number of Genes Differentially Expressed” value [4] was 19, the “Fold Enrichment” value [5] was 3.14 fold and the “Number of Genes Differentially Expressed” value [5] was 12. The “Fold Enrichment” value [6] was 4.52 fold, the “Number of Genes Differentially Expressed” value [6] was 21 and the “Fold Enrichment” value [7] was 2.87 fold. For the same compound, the “Number of Genes Differentially Expressed” value [7] was 11, the “Fold Enrichment” value [8] was 1.23 fold and the “Number of Genes Differentially Expressed” value [8] was 183. For the same compound, the “Fold Enrichment” value [9] was 2.05 fold, the “Number of Genes Differentially Expressed” value [9] was 22 and the “Fold Enrichment” value [10] was 1.60 fold. The “Number of Genes Differentially Expressed” value [10] was 136, the “Fold Enrichment” value [11] was 1.97 fold and the “Number of Genes Differentially Expressed” value [11] was 140. For the same compound, the “Fold Enrichment” value [12] was 3.63 fold, the “Number of Genes Differentially Expressed” value [12] was 32 and the “Fold Enrichment” value (Gene Cluster Growth) was 5.23 fold. For the same compound, the “Number of Genes Differentially Expressed” value (Gene Cluster Growth) was 8, the “Fold Enrichment” value (Gene Cluster Heparin binding) was 2.53 fold and the “Number of Genes Differentially Expressed” value (Gene Cluster Heparin binding) was 22. The “Fold Enrichment” value [13] was 10.45 fold, the “Number of Genes Differentially Expressed” value [13] was 4 and the “Fold Enrichment” value [14] was 2.61 fold. For the same compound, the “Number of Genes Differentially Expressed” value [14] was 54, the “Fold Enrichment” value [15] was 7.32 fold and the “Number of Genes Differentially Expressed” value [15] was 6. For the same compound, the “Fold Enrichment” value [16] was 3.13 fold, the “Number of Genes Differentially Expressed” value [16] was 13 and the “Fold Enrichment” value [17] was 3.47 fold. For the same compound, the “Number of Genes Differentially Expressed” value [17] was 11, the “Fold Enrichment” value [18] was 2.17 fold and the “Number of Genes Differentially Expressed” value [18] was 47. For the same compound, the “Fold Enrichment” value [19] was 2.42 fold, the “Number of Genes Differentially Expressed” value [19] was 16 and the “Fold Enrichment” value [20] was 3.33 fold. The “Number of Genes Differentially Expressed” value [20] was 12, the “Fold Enrichment” value [21] was 3.05 fold and the “Number of Genes Differentially Expressed” value [21] was 10. For the same compound, the “Fold Enrichment” value [22] was 2.64 fold, the “Number of Genes Differentially Expressed” value [22] was 15 and the “Fold Enrichment” value [23] was 3.02 fold. The “Number of Genes Differentially Expressed” value [23] was 19, the “Fold Enrichment” value [24] was 2.88 fold and the “Number of Genes Differentially Expressed” value [24] was 29. The “Fold Enrichment” value [25] was 1.96 fold, the “Number of Genes Differentially Expressed” value [25] was 50 and the “Fold Enrichment” value [26] was 1.82 fold. The “Number of Genes Differentially Expressed” value [26] was 26, the “Fold Enrichment” value [27] was 4.88 fold and the “Number of Genes Differentially Expressed” value [27] was 16. The “Fold Enrichment” value [28] was 2.47 fold, the “Number of Genes Differentially Expressed” value [28] was 35 and the “Fold Enrichment” value (Gene Cluster Response to drug) was 2.04 fold. For the same compound, the “Number of Genes Differentially Expressed” value (Gene Cluster Response to drug) was 34, the “Fold Enrichment” value [29] was 4.82 fold and the “Number of Genes Differentially Expressed” value [29] was 11. For the same compound, the “Fold Enrichment” value (Gene Cluster Wound healing) was 3.20 fold, the “Number of Genes Differentially Expressed” value (Gene Cluster Wound healing) was 14 and the “Fold change (gene expression)” value (HAS2 - hyaluronan synthase 2, ECM) was 5.48 fold. The “Fold change (gene expression)” value (HAS3 - hyaluronan synthase 3, ECM) was 3.59 fold, the “Fold change (gene expression)” value (HBEGF - Heparin-binding EGF-like growth factor, Growth) was 8.61 fold and the “Fold change (gene expression)” value (HIF1A - Hypoxia-inducible factor 1 subunit alpha, Oxidative stress) was 1.36 fold. For the same compound, the “Fold change (gene expression)” value (HMOX1 - Heme oxygenase 1, Oxidative stress) was 5.23 fold, the “Fold change (gene expression)” value (HS3ST1 - Heparan sulfate-glucosamine 3-sulfotransferase 1, ECM) was 2.28 fold and the “Fold change (gene expression)” value (IL1A - Interleukin 1 alpha, Cytokine signaling) was 6.60 fold. For the same compound, the “Fold change (gene expression)” value (IL1RL1 - Interleukin 1 receptor-like 1, Immune signaling) was 17.29 fold, the “Fold change (gene expression)” value (ITGA6 - Integrin subunit alpha 6, Cell adhesion) was 1.44 fold and the “Fold change (gene expression)” value (ITGBL1 - Integrin subunit beta-like 1, Cell adhesion) was 0.68 fold. The “Fold change (gene expression)” value (KIF13A - Kinesin family member 13A, Cytoskeleton/secretion) was 0.67 fold, the “Fold change (gene expression)” value (LAMA3 - Laminin subunit alpha 3, ECM) was 1.59 fold and the “Fold change (gene expression)” value (LAMC2 - Laminin subunit gamma 2, ECM) was 2.72 fold. The “Fold change (gene expression)” value (NGF - Nerve growth factor, Growth) was 113.25 fold, the “Fold change (gene expression)” value (NID2 - Nidogen 2 precursor, ECM) was 1.45 fold and the “Fold change (gene expression)” value (OCLN - Occludin, Skin barrier) was 1.42 fold. For the same compound, the “Fold change (gene expression)” value (OLFM4 - Olfactomedin 4, ECM) was 0.10 fold, the “Fold change (gene expression)” value (PARP15 - Poly (ADP-Ribose) polymerase family member 15, DNA damage repair/transcription regulation) was 98.2 fold and the “Fold change (gene expression)” value (PI3 - Peptidase inhibitor 3, elastase inhibitor, Elastin genes) was 10.5 fold. For the same compound, the “Fold change (gene expression)” value (PSAPL1 - Prosaposin-like 1, ECM) was 0.30 fold, the “Fold change (gene expression)” value (PSG5 - Pregnancy specific beta-1-glycoprotein 5, ECM) was 0.30 fold and the “Fold change (gene expression)” value (PTPRR - Protein tyrosine phosphatase receptor type R, Negative regulation of growth) was 3.96 fold. The “Fold change (gene expression)” value (RAPGEF3 - Rap guanine nucleotide exchange factor 3, Plasma membrane fusion/cytoskeleton) was 1.78 fold, the “Fold change (gene expression)” value (SELE - E-Selectin, Cell adhesion) was 99.30 fold and the “Fold change (gene expression)” value (SEMA3D - Semaphorin 3D, ECM/Nerve growth) was 0.54 fold. The “Fold change (gene expression)” value (SERPINB2 - Serpin family B member 2, Skin barrier) was 4.25 fold, the “Fold change (gene expression)” value (SERPINB4 - Serpin family B member 4, Skin barrier) was 6.37 fold and the “Fold change (gene expression)” value (SIRT1 - Sirtuin 1, Transcription regulation) was 1.30 fold. The “Fold change (gene expression)” value (SIRT7 - Sirtuin 7, Transcription regulation) was 1.41 fold, the “Fold change (gene expression)” value (SOD2 - Superoxide dismutase 2, Oxidative stress) was 1.54 fold and the “Fold change (gene expression)” value (TFP12 - Tissue factor pathway inhibitor 2, ECM) was 2.37 fold. For the same compound, the “Fold change (gene expression)” value (TGFB1 - Transforming growth factor beta 1, TGF-β signaling) was 1.30 fold, the “Fold change (gene expression)” value (TLR4 - Toll-like receptor 4, Immune signaling) was 3.41 fold and the “Fold change (gene expression)” value (TNC - Tenascin C, ECM/Nerve growth) was 0.50 fold. The “Fold change (gene expression)” value (TP73 - Tumor protein P73, Growth) was 0.35 fold, the “Fold change (gene expression)” value (TXNRD1 - Thioredoxin reductase 1, Oxidative stress) was 1.52 fold and the “Fold change (gene expression)” value (UGCG - UDP-glucose ceramide glucosyltransferase, Lipid metabolism and transport) was 1.56 fold. For the same compound, the “Fold change (gene expression)” value (VIT - Vitrin, ECM) was 0.08 fold.
